Test results taken from US12390437B2, “Itaconic acid derivatives and uses thereof intreating an inflammatory disease or a disease associated with an undesirable immune response” (Sitryx Therapeutics Limited, priority 2019, dated 2025).
Structures can show the parent of a compound that is named as a salt.

Each compound was assayed on IL-6 cytokine output from isolated primary human monocytes (assay: Primary human monocyte AlphaLISA IL-6 cytokine assay). Details: CD14+ primary human monocytes, LPS 24 hr then Nigericin 1 hour.
Type: cell-based
Experimental: Measuring Inhibitory Effects on IL-1β and IL-6 Cytokine Output from Isolated Primary Human Monocytes
The cytokine inhibition profiles of compounds of formula (IW-1) were determined in a CD14^+ isolated primary human monocyte cell assay. All assays were performed in RPMI-1640 growth medium (Gibco), supplemented with heat-inactivated fetal bovine serum (FBS) and 1% penicillin-streptomycin unless specified otherwise. The IL-1β and IL-6 cytokine inhibition assays were each run in a background of isolated primary human monocyte cells as described below. All reagents described were from Sigma-Aldrich unless specified otherwise. Compounds were prepared as 100 mM DMSO stocks.
Primary peripheral blood mononuclear cells (PBMCs) were isolated from human whole blood. Following PBMC isolation, a CD14^+ monocyte isolation step was conducted whereby CD14^+ magnetic beads (Miltenyi Biotec) were incubated for 15 minutes with the PBMC suspension that was previously treated with ice cold T-cell isolation buffer (PBS, 0.5% BSA, 2 mM EDTA). Following bead incubation, the treated cell suspension was passed through a magnetic separation column designed to positively select for magnetically labelled cells. The isolated CD14^+ monocytes were subsequently plated at the appropriate cell density for the assay, prior to compound treatment on the day of plating. Working concentrations of compounds were prepared separately in RPMI-1640 only growth medium and pre-incubated with the cells for 30 minutes (37° C./5% CO2). Following the 30 minute compound pre-incubation, primary monocytes were treated with an appropriate concentration of LPS and subsequently incubated for a 24 hr period (37° C./5% CO2). An appropriate final concentration of Nigericin was then dispensed into the primary monocyte plates and incubated for 1 hour (37° C./5% CO2) before monocyte supernatants were harvested and collected in separate polypropylene 96-well holding plates prior to commencing the AlphaLISA cytokine assay.
Reagents from each of the IL-1β and IL-6 commercial kits (Perkin Elmer) were prepared and run according to the manufacturer's instructions. Subsequently, fluorescence signal was measured in a microplate reader (EnVision® Multilabel Reader, Perkin Elmer).
Percentage inhibition was calculated per cytokine by normalising the sample data to the high and low controls used within each plate (+/−LPS respectively). Percentage inhibition was then plotted against compound concentration and the 50% inhibitory concentration (IC50) was determined from the resultant concentration-response curve.

Row | IC50 [µM] | SMILES
1 | 26.9 | C=C(CC(=O)OCCCCCCCC)C(=O)OCCC#N [Example 1, 1-(2-cyanoethyl) 4-octyl 2-methylenesuccinate]
2 | 13.2 | C=C(CC(=O)OCCCCCCCC)C(=O)OCCS(C)(=O)=O [Example 2, 1-(2-(methylsulfonyl)ethyl) 4-octyl 2-methylenesuccinate]
3 | 10.7 | C=C(CC(=O)OCCCCCCCC)C(=O)OCCN1C(=O)CCC1=O [Example 9, 1-(2-(2,5-dioxopyrrolidin-1-yl)ethyl) 4-octyl 2-methylenesuccinate]
4 | 15.7 | COC(=O)/C=C/C(=O)OC [dimethyl fumarate, reference compound]
